# The supplement of paper PMC10307832
# What was measured:
# Experiment in all cases: relative viability (nuclei count vs DMSO), 5 days (fraction); higher = more cells survive
# [1] = compound: C/C(=N\NC(=S)N1CCC1)/C2=CC=CC=N2 + CC(=O)c1c(C)c2cnc(Nc3ccc(N4CCNCC4)cn3)nc2n(C2CCCC2)c1=O [Palbociclib] (partner 0.5 µM)
# In short: (§1)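 Lung cancer cell lines in 1536-well plates got either a single drug or a fixed anchor-drug dose together with five library-drug doses (not always all listed) in √10 steps, by pin tool, on the day after seeding. Nuclei were counted after 5 days, and relative viability is the treated-to-vehicle ratio of nuclei counts. Values are medians of duplicate plates.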
# [2] = compound: C/C(=N\NC(=S)N1CCC1)/C2=CC=CC=N2 + CC(C)C[C@H](NC(=O)[C@H](Cc1ccccc1)NC(=O)c1cnccn1)B(O)O [Bortezomib] (partner 0.002 µM)
# In short: as §1
# [3] = compound: C/C(=N\NC(=S)N1CCC1)/C2=CC=CC=N2 + COc1cc2c(Oc3ccc(NC(=O)C4(C(=O)Nc5ccc(F)cc5)CC4)cc3F)ccnc2cc1OCCCN1CCOCC1 [Foretinib] (partner 0.25 µM)
# In short: as §1
# [4] = compound: C/C(=N\NC(=S)N1CCC1)/C2=CC=CC=N2 + CS(=O)(=O)N1CCN(Cc2cc3nc(-c4cccc5[nH]ncc45)nc(N4CCOCC4)c3s2)CC1 [Pictilisib] (partner 1 µM)
# In short: as §1
Cell Line,relative viability ([1]; first compound 0.05 µM),relative viability ([1]; first compound 0.1581 µM),relative viability ([1]; first compound 0.5 µM),relative viability ([1]; first compound 1.581 µM),relative viability ([1]; first compound 5 µM),relative viability ([2]; first compound 0.05 µM),relative viability ([2]; first compound 0.1581 µM),relative viability ([2]; first compound 0.5 µM),relative viability ([2]; first compound 1.581 µM),relative viability ([2]; first compound 5 µM),relative viability ([3]; first compound 0.05 µM),relative viability ([3]; first compound 0.1581 µM),relative viability ([3]; first compound 0.5 µM),relative viability ([3]; first compound 1.581 µM),relative viability ([3]; first compound 5 µM),relative viability ([4]; first compound 0.05 µM),relative viability ([4]; first compound 0.1581 µM),relative viability ([4]; first compound 0.5 µM),relative viability ([4]; first compound 1.581 µM),relative viability ([4]; first compound 5 µM)
ChaGo-K-1,0.144,0.408,0.144,0.132,0.148,0.285,0.462,0.285,0.221,0.318,0.217,0.24,0.211,0.176,0.171,0.233,0.392,0.232,0.237,0.293
EKVX,0.13,0.149,0.109,0.141,0.158,0.138,0.129,0.103,0.141,0.144,0.0957,0.192,0.118,0.104,0.984,0.113,0.127,0.115,0.107,0.124
EMC-BAC-2,0.274,0.324,0.261,0.223,0.253,0.104,0.142,0.149,0.174,0.16,0.209,0.261,0.246,0.183,0.237,0.0912,0.166,0.173,0.193,0.19
EPLC-272H,0.117,0.138,0.155,0.056,0.0855,0.116,0.155,0.133,0.131,0.116,0.0785,0.069,0.1,0.0473,0.0779,0.159,0.159,0.149,0.12,0.138
H3255,0.259,0.278,0.304,0.259,0.266,0.227,0.276,0.268,0.171,0.195,0.241,0.245,0.241,0.242,0.29,0.244,0.23,0.192,0.222,0.203
HARA,0.188,0.133,0.233,0.139,0.164,0.22,0.143,0.197,0.13,0.0787,0.207,0.307,0.09,0.0777,0.0635,0.0923,0.0752,0.0784,0.0856,0.0671
HCC-15,0.184,0.268,0.114,0.0996,0.091,0.133,0.0661,0.0658,0.0754,0.0698,0.131,0.0633,0.115,0.0865,0.0901,0.0704,0.087,0.104,0.0822,0.0856
HCC-44,0.976,0.886,0.563,0.556,0.451,0.335,0.234,0.221,0.19,0.239,–,–,–,–,–,0.341,0.142,0.125,0.149,0.217
